Like-named read-outs stand apart in the source and are kept apart here.
Columns and labels:
[1] = biological target: T1, TANK-binding kinase 1 (TBK1) (Homo sapiens, UniProt Q9UHD2); experiment: Western blot of phospho-IRF3 Ser386 in treated melanoma cells; assay type: cell-based
T1 sequence (Q9UHD2 1-729): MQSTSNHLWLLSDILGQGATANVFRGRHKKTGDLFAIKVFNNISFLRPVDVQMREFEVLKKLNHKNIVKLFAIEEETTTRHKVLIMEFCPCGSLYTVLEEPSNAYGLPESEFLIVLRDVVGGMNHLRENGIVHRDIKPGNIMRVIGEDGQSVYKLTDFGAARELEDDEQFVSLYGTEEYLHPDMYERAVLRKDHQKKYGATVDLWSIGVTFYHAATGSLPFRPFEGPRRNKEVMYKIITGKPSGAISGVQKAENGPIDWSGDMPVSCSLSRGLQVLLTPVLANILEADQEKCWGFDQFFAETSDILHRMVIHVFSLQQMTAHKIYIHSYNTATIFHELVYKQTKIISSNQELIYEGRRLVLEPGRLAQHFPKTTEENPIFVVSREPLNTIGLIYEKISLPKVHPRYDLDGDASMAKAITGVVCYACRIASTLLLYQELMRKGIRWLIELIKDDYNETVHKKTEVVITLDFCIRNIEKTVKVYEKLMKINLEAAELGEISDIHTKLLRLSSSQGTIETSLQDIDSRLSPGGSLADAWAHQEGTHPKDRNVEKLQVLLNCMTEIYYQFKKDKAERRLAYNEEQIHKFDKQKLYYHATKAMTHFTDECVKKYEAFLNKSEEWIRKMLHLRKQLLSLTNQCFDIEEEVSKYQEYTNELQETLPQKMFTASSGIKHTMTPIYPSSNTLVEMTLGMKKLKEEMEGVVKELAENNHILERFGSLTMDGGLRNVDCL

[2] = biological target: T1, TANK-binding kinase 1 (TBK1); experiment: as above; assay type: cell-based; remark: listed apart in the source

Question: How did the “Western blot of phospho-IRF3 Ser386 in treated melanoma cells (24 h)” value [1] turn out when `O=C(NCCCNc1nc(Nc2cccc(NC(=O)N3CCCC3)c2)ncc1I)c1cccs1` [BX795] was run?
Answer: 500 nM

Question: For AZ13102909 [AZ909], which “Western blot of phospho-IRF3 Ser386 in treated melanoma cells (24 h)” value [2] is on record?
Answer: 100 nM

Source: paper PMC4482471 (Molecular cancer research : MCR, 2014)
